Entries after “also recorded” stand apart in the source; their conditions may differ.

For one assay, the system named is DG167-resistant M. tuberculosis mutants. It counts as cell-based.
Regarding `COc1nc2ccc(Br)cc2cc1[C@@H](c1ccccc1)[C@@](O)(CCN(C)C)c1cccc2ccccc12` [BDQ, bedaquiline], the “susceptibility of DG167-resistant mutants” value (“susceptibility” below) was “remained susceptible”.

`CC[C@@H](CO)NCCN[C@@H](CC)CO` [EMB, ethambutol]: the “susceptibility” value was “remained susceptible”.

For `CCc1cc(C(N)=S)ccn1` [ETH, ethionamide], the “susceptibility” value is given as “remained susceptible”.

On to `NNC(=O)c1ccncc1` [INH, isoniazid, reference compound], for which the “susceptibility” value was “remained susceptible”.

Turning to `O=[N+]([O-])c1cn2c(n1)OC[C@@H](OCc1ccc(OC(F)(F)F)cc1)C2` [PA824], the “susceptibility” value is reported as “remained susceptible”.

With `CC(C)=CCC/C(C)=C/CNCCNC1C2CC3CC(C2)CC1C3` (stereo not shown) [SQ109], the “susceptibility” value was “remained susceptible”.

For another assay, the system named is mycolic acid biosynthesis. It counts as cell-based, M. tuberculosis.
Take `CCCCS(=O)(=O)Nc1ccc2cnn(C)c2c1` [DG167, N-(1-methyl-1H-indazol-6-yl)butane-1-sulfonamide]: the “inhibition of mycolic acid biosynthesis” value was “dose-dependent inhibition; also recorded: resistant to DG167-mediated inhibition of mycolic acid biosynthesis”.
